From PubChem BioAssay AID2060909 (Molecular Pharmacology Branch, DTP, NCI, 2025)
Blank lines part the entries; values can stand above or below the compound they belong to.

System: 362531-283-R-J2-PDC complex spheroid viability
Test: Anticancer human tumor 362531-283-R-J2-PDC patient-derived colon adenocarcinoma cell line growth inhibition [RAS]
Settings: for IC50: curve of first compound; for viability, T/C: stronger effect = lower value
Excerpt: RAS pathway inhibitors in Combinations in Complex Spheroids
A high-throughput screen of multi-cell type tumor spheroids was designed to identify active combinations of RAS pathway inhibitors and targeted small molecules. Complex spheroids include a stromal component modeled by human endothelial cells (HUVEC) and fibroblasts modeled by human mesenchymal stem cells (MSCs). The concentration ranges selected for each drug and investigational agent were based upon clinically achievable concentrations if the clinical Cmax of the agent was known.
Compounds. The drugs and investigational agents: abemaciclib (NSC768073), cobimetinib (NSC768068), divarasib (GDC6063, NSC841802), docetaxel (NSC628503), GDC-1971 (RLY-1971, NSC841576), gemcitabine (NSC613327), inavolisib (NSC800729), ipatasertib (NSC767898), KB-0742 (NSC834161), MRTX-1133 (NSC836407), osimertinib (NSC779217), RMC-4630 (NSC839698), RMC-6236 (NSC851965), RMC-6291 (NSC852671), Ro-3306 (NSC812927), sapanisertib (NSC764658), SN-38 (NSC673596), staurosporine (NSC755774), SY5609 (NSC837396), and tovorafenib (DAY101, NSC766906), were obtained from the National Cancer Institute (NCI) Developmental Therapeutics Program Chemical Repository. The FDA-approved anticancer drug set is available from the NCI Developmental Therapeutics Program. […] The stock solutions were prepared in dimethyl sulfoxide (DMSO, Sigma-Aldrich, St. Louis, MO, cat. D2650) at 800-fold the tested concentration and stored at -70 degrees C prior to their use. All drugs and investigational agents were tested over a range starting from a high concentration at or near the clinical Cmax and decreasing in half-log increments. If the clinical Cmax for an agent had not been determined, the highest concentration tested was 10 microM.
Cell Culture. All cells were maintained in an incubator at 37 degrees C and 5% CO2 with 95% humidity. The PDC lines were cultured according to standard operating procedures established by the NCI PDMR. All PDCs were thawed and cultured in Matrigel-coated flasks prepared with a working solution of 1X Ham's F-12 nutrient mix, without supplementation (Invitrogen, Waltham, MA, cat. 11765054), 100 U/mL penicillin-streptomycin (Invitrogen, cat. 15140122), and 2.5% Matrigel (Corning Inc., Corning, NY, cat. 354248) for the first three passages. The 362531-283-R-J2-PDC and 782815-120-R-J1-PDC lines were cultured in 6C/Colon 1B media, which includes advanced DMEM/F-12 (Thermo Fisher Scientific, cat. 12634028), 10 mM HEPES (Thermo Fisher Scientific, cat. 15630080), 1X GlutaMAX supplement (Thermo Fisher Scientific, cat. 35050061), 0.1 mg/mL primocin (InvivoGen, San Diego, CA, cat. ant-pm-2), 10% defined fetal bovine serum, heat inactivated (HyClone Laboratories Inc., Logan, UT, cat. SH30070.03HI), 50% L-WRN conditioned media (ATCC, cat. CRL-3276), 1.25 mM N-Acetyl-L-cysteine (Sigma-Aldrich, cat. A9165), 10 mM nicotinamide (Sigma-Aldrich, cat. N0636), 1X B-27 supplement (Thermo Fisher Scientific, cat. 17504044), 1X N-2 supplement (Thermo Fisher Scientific, cat. 17502048), 50 ng/mL human EGF (Thermo Fisher Scientific, cat. PHG0311), and 10 microM Y-27632 dihydrochloride (Tocris Bioscience, cat. 1254). The K12877-001-R-J1-PDC line was cultured in 6I media, which includes all 6C/Colon 1B media plus 10 ng/mL human FGF-10 (PeproTech, cat. 100-26), 1 ng/mL human FGF-2 (PeproTech, cat. 100-18B), 1 µM prostaglandin E2 (Tocris Bioscience, cat. 2296), […] hydrocortisone (Sigma-Aldrich, cat. H4001), and […] bovine insulin (Sigma-Aldrich, cat. I6634). The K86415-001-R-J1-PDC line was cultured in 6D media, which includes all 6C/Colon 1B media components minus the L-WRN conditioned media. The 485176-168-R4-J1-PDC was cultured in PANC media, which includes all 6C/Colon 1B media plus 100 ng/mL human FGF-10 (PeproTech, cat. 100-26), 500 nM SB-431542 (Selleckchem, cat. S1067), and 10 nM gastrin (Tocris Bioscience, cat. 3006). […]
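Note: spheroids exposed to the agents for 7 days before readout.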
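Throughout, for viability, T/C: luminescence viability as percent of DMSO vehicle control wells.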

- IC50 (second compound 0.00316 µM): 363 nM
- IC50 (second compound 0.01 µM): 399 nM
- IC50 (second compound 0.0316 µM): 306 nM
- IC50 (second compound 0.1 µM): 368 nM
- IC50 (second compound 0.316 µM): 377 nM
- IC50 (second compound 1 µM): 349 nM
Structure (SMILES): O=C(c1ccc(F)c(F)c1Nc1ccc(I)cc1F)N1CC(O)([C@@H]2CCCCN2)C1 + C=CC(=O)N1CCN(c2nc(OCC3CCCN3C)nc3c(F)c(-c4nc(N)cc(C)c4C(F)(F)F)c(Cl)cc23)C(C)C1
- viability, T/C (second compound 0.00316 µM, first compound 0.00316 µM): 94.4%
- viability, T/C (second compound 0.00316 µM, first compound 0.01 µM): 111%
- viability, T/C (second compound 0.00316 µM, first compound 0.0316 µM): 93.1%
- viability, T/C (second compound 0.00316 µM, first compound 0.1 µM): 84.8%
- viability, T/C (second compound 0.00316 µM, first compound 0.316 µM): 56.6%
- viability, T/C (second compound 0.00316 µM, first compound 1 µM): 4.22%
- viability, T/C (second compound 0.01 µM, first compound 0.00316 µM): 100%
- viability, T/C (second compound 0.01 µM, first compound 0.01 µM): 95.3%
- viability, T/C (second compound 0.01 µM, first compound 0.0316 µM): 97%
- viability, T/C (second compound 0.01 µM, first compound 0.1 µM): 83.9%
- viability, T/C (second compound 0.01 µM, first compound 0.316 µM): 61.4%
- viability, T/C (second compound 0.01 µM, first compound 1 µM): 6.87%
- viability, T/C (second compound 0.0316 µM, first compound 0.00316 µM): 103%
- viability, T/C (second compound 0.0316 µM, first compound 0.01 µM): 99.2%
- viability, T/C (second compound 0.0316 µM, first compound 0.0316 µM): 95.1%
- viability, T/C (second compound 0.0316 µM, first compound 0.1 µM): 80.8%
- viability, T/C (second compound 0.0316 µM, first compound 0.316 µM): 48.9%
- viability, T/C (second compound 0.0316 µM, first compound 1 µM): 10.1%
- viability, T/C (second compound 0.1 µM, first compound 0.00316 µM): 101%
- viability, T/C (second compound 0.1 µM, first compound 0.01 µM): 97.5%
- viability, T/C (second compound 0.1 µM, first compound 0.0316 µM): 88.8%
- viability, T/C (second compound 0.1 µM, first compound 0.1 µM): 79.6%
- viability, T/C (second compound 0.1 µM, first compound 0.316 µM): 59.6%
- viability, T/C (second compound 0.1 µM, first compound 1 µM): 4.51%
- viability, T/C (second compound 0.316 µM, first compound 0.00316 µM): 99.7%
- viability, T/C (second compound 0.316 µM, first compound 0.01 µM): 97.6%
- viability, T/C (second compound 0.316 µM, first compound 0.0316 µM): 91.9%
- viability, T/C (second compound 0.316 µM, first compound 0.1 µM): 81.9%
- viability, T/C (second compound 0.316 µM, first compound 0.316 µM): 58.3%
- viability, T/C (second compound 0.316 µM, first compound 1 µM): 6.58%
- viability, T/C (second compound 1 µM, first compound 0.00316 µM): 101%
- viability, T/C (second compound 1 µM, first compound 0.01 µM): 94.7%
- viability, T/C (second compound 1 µM, first compound 0.0316 µM): 81.1%
- viability, T/C (second compound 1 µM, first compound 0.1 µM): 79.7%
- viability, T/C (second compound 1 µM, first compound 0.316 µM): 55.5%
- viability, T/C (second compound 1 µM, first compound 1 µM): 8.33%

- IC50 (second compound 0.000949 µM): 62.7 nM
- IC50 (second compound 0.003 µM): 67.9 nM
- IC50 (second compound 0.00949 µM): 48.1 nM
- IC50 (second compound 0.03 µM): 41.3 nM
- IC50 (second compound 0.0949 µM): 18.8 nM
- IC50 (second compound 0.3 µM): < 0.316 nM
Structure (SMILES): CC(C)n1nc(-c2ccc3oc(N)nc3c2)c2c(N)ncnc21 + CCn1c(-c2cc(N3CCN(C)CC3)cnc2C(C)OC)c2c3cc(ccc31)-c1csc(n1)CC(NC(=O)C1CC1C)C(=O)N1CCCC(N1)C(=O)OCC(C)(C)C2
- viability, T/C (second compound 0.000949 µM, first compound 0.000316 µM): 88.2%
- viability, T/C (second compound 0.000949 µM, first compound 0.001 µM): 97.4%
- viability, T/C (second compound 0.000949 µM, first compound 0.00316 µM): 98.9%
- viability, T/C (second compound 0.000949 µM, first compound 0.01 µM): 106%
- viability, T/C (second compound 0.000949 µM, first compound 0.0316 µM): 62.9%
- viability, T/C (second compound 0.000949 µM, first compound 0.1 µM): 41.2%
- viability, T/C (second compound 0.003 µM, first compound 0.000316 µM): 99.4%
- viability, T/C (second compound 0.003 µM, first compound 0.001 µM): 102%
- viability, T/C (second compound 0.003 µM, first compound 0.00316 µM): 102%
- viability, T/C (second compound 0.003 µM, first compound 0.01 µM): 100%
- viability, T/C (second compound 0.003 µM, first compound 0.0316 µM): 69.7%
- viability, T/C (second compound 0.003 µM, first compound 0.1 µM): 40%
- viability, T/C (second compound 0.00949 µM, first compound 0.000316 µM): 102%
- viability, T/C (second compound 0.00949 µM, first compound 0.001 µM): 111%
- viability, T/C (second compound 0.00949 µM, first compound 0.00316 µM): 93.6%
- viability, T/C (second compound 0.00949 µM, first compound 0.01 µM): 94.7%
- viability, T/C (second compound 0.00949 µM, first compound 0.0316 µM): 57.6%
- viability, T/C (second compound 0.00949 µM, first compound 0.1 µM): 35.9%
- viability, T/C (second compound 0.03 µM, first compound 0.000316 µM): 89.5%
- viability, T/C (second compound 0.03 µM, first compound 0.001 µM): 86.5%
- viability, T/C (second compound 0.03 µM, first compound 0.00316 µM): 89.6%
- viability, T/C (second compound 0.03 µM, first compound 0.01 µM): 92%
- viability, T/C (second compound 0.03 µM, first compound 0.0316 µM): 54%
- viability, T/C (second compound 0.03 µM, first compound 0.1 µM): 36.8%
- viability, T/C (second compound 0.0949 µM, first compound 0.000316 µM): 82.2%
- viability, T/C (second compound 0.0949 µM, first compound 0.001 µM): 84.1%
- viability, T/C (second compound 0.0949 µM, first compound 0.00316 µM): 77.1%
- viability, T/C (second compound 0.0949 µM, first compound 0.01 µM): 63.1%
- viability, T/C (second compound 0.0949 µM, first compound 0.0316 µM): 39%
- viability, T/C (second compound 0.0949 µM, first compound 0.1 µM): 35%
- viability, T/C (second compound 0.3 µM, first compound 0.000316 µM): 41.6%
- viability, T/C (second compound 0.3 µM, first compound 0.001 µM): 45.7%
- viability, T/C (second compound 0.3 µM, first compound 0.00316 µM): 37%
- viability, T/C (second compound 0.3 µM, first compound 0.01 µM): 21.1%
- viability, T/C (second compound 0.3 µM, first compound 0.0316 µM): 21.8%
- viability, T/C (second compound 0.3 µM, first compound 0.1 µM): 17.1%
